Assay [1] deals with T1, HCV NS3/4A protease complex, BMS strain (UniProt P27958, C1454S/C1711G, species not given).
T1 construct: other: HCV NS3/4A enzyme assay; class symbols; numeric values; fused on or other part: three-lysine solubilising tail at the C-terminus of NS4A; purified on Ni-NTA from the pET21b vector (His tag implied)
In words: FRET peptide assay to monitor HCV NS3/4A proteolytic activity (BMS strain). The class given is biochemical, HCV genotype 1a. Particulars: read-out: IC50 Range, HCV NS3/4A enzyme assay. From the text: HCV NS3 protease complexes, derived from the BMS strain, H77 strain or J4L6S strain, were generated, as described below. These purified recombinant proteins were generated for use in a homogeneous assay (see below) to provide an indication of how effective compounds of the present disclosure would be in inhibiting HCV NS3 proteolytic activity.
Serum from an HCV-infected patient was obtained from Dr. T. Wright, San Francisco Hospital. An engineered full-length cDNA (compliment deoxyribonucleic acid) template of the HCV genome (BMS strain) was constructed from DNA fragments obtained by reverse transcription-PCR (RT-PCR) of serum RNA (ribonucleic acid) and using primers selected on the basis of homology between other genotype 1a strains. From the determination of the entire genome sequence, a genotype 1a was assigned to the HCV isolate according to the classification of Simmonds et al. (See P Simmonds, K A Rose, S Graham, S W Chan, F McOmish, B C Dow, E A Follett, P L Yap and H Marsden, J. Clin. Microbiol., 31(6), 1493-1503 (1993)). […] The infectious clones, H77 (1a genotype) and J4L6S (1b genotype) were obtained from R. Purcell (NIH) and the sequences are published in Genbank (AAB67036, see Yanagi, M., Purcell, R. H., Emerson, S. U. and Buldi, J. Proc. Natl. Acad. Sci. U.S.A. 94(16),8738-8743 (1997); AF054247, see Yanagi, M., St Claire, M., Shapiro, M., Emerson, S. U., Purcell, R. H. and Bukh, J, Virology 244 (1), 161-172. (1998)).
NS3/4A protease complex-containing fractions were pooled and loaded on a desalting column Superdex-S200 pre-equilibrated with buffer D (25 mM HEPES, pH 7.5, 20% glycerol, 300 mM NaCl, 0.2% TritonX-100, 10 mM βMB). Sample was loaded at a flow rate of 1 mL/min. NS3/4A protease complex-containing fractions were pooled and concentrated to approximately 0.5 mg/ml. The purity of the NS3/4A protease complexes, derived from the BMS, H77 and J4L6S strains, were judged to be greater than 90% by SDS-PAGE and mass spectrometry analyses. The enzyme was stored at −80° C., thawed on ice and diluted prior to use in assay buffer.
The purpose of this in vitro assay was to measure the inhibition of HCV NS3 protease complexes, derived from the BMS strain, H77 strain or J4L6S strain, as described above, by compounds of the present disclosure. This assay provides an indication of how effective compounds of the present disclosure would be in inhibiting HCV NS3 proteolytic activity.
In order to monitor HCV NS3/4A protease activity, an NS3/4A peptide substrate was used. The substrate was RET S1 (Resonance Energy Transfer Depsipeptide Substrate; AnaSpec, Inc. cat #22991)(FRET peptide), described by Taliani et al. in Anal. Biochem. 240(2):60-67 (1996). The sequence of this peptide is loosely based on the NS4A/NS4B natural cleavage site for the HCV NS3 protease except there is an ester linkage rather than an amide bond at the cleavage site. The peptide also contains a fluorescence donor, EDANS, near one end of the peptide and an acceptor, DABCYL, near the other end. The fluorescence of the peptide is quenched by […] resonance energy transfer (RET) between the donor and the acceptor, but as the NS3 protease cleaves the peptide the products are released from RET quenching and the fluorescence of the donor becomes apparent.
The peptide substrate was incubated with one of the three recombinant NS3/4A protease complexes, in the absence or presence of a compound of the present disclosure. The inhibitory effects of a compound were determined by monitoring the formation of fluorescent reaction product in real time using a Cytofluor Series 4000.
Assay buffer: 50 mM HEPES, pH 7.5; 0.15 M NaCl; 0.1% Triton; 15% Glycerol; 10 mM βME. Substrate: 2 μM final concentration (from a 2 mM stock solution in DMSO stored at −20° C.). HCV NS3/4A protease type 1a (1b), 2-3 nM final concentration (from a 5 μM stock solution in 25 mM HEPES, pH 7.5, 20% glycerol, 300 mM NaCl, 0.2% Triton-X100, 10 mM βME). […]

For assay [2], the system named is HCV replicon in HUH-7 cells. In words: HCV replicon FRET assay. The class given is cell-based, HCV strain 1b. The following applies: Hepatitis C virus. From the text:
An HCV replicon whole cell system was established as described by Lohmann V, Korner F, Koch J, Herian U, Theilmann L, Bartenschlager R., Science 285(5424):110-3 (1999). This system enabled us to evaluate the effects of our HCV Protease compounds on HCV RNA replication. Briefly, using the HCV strain 1b sequence described in the Lohmann paper (Assession number:AJ238799), an HCV cDNA was synthesized by Operon Technologies, Inc. (Alameda, Calif.), and the full-length replicon was then assembled in plasmid pGem9zf(+) (Promega, Madison, Wis.) using standard molecular biology techniques. The replicon consists of (i) the HCV 5′ UTR fused to the first 12 amino acids of the capsid protein, (ii) the neomycin phosphotransferase gene (neo), (iii) the IRES from encephalomyocarditis virus (EMCV), and (iv) HCV NS3 to NS5B genes and the HCV 3′ UTR. Plasmid DNAs were linearized with ScaI and RNA transcripts were synthesized in vitro using the T7 MegaScript transcription kit (Ambion, Austin, Tex.) according to manufacturer's directions. In vitro transcripts of the eDNA were transfected into the human hepatoma cell line, HUH-7. […] Resulting cell lines were characterized for positive and negative strand RNA production and protein production over time.
The HCV replicon FRET assay was developed to monitor the inhibitory effects of compounds described in the disclosure on HCV viral replication. HUH-7 cells, constitutively expressing the HCV replicon, were grown in Dulbecco's Modified Eagle Media (DMEM) (Gibco-BRL) containing 10% Fetal calf serum (FCS) (Sigma) and 1 mg/ml G418 (Gibco-BRL). Cells were seeded the night before (1.5×10^4 cells/well) in 96-well tissue-culture sterile plates. Compound and no compound controls were prepared in DMEM containing 4% FCS, 1:100 Penicillin/Streptomysin (Gibco-BRL), 1:100 L-glutamine and 5% DMSO in the dilution plate (0.5% DMSO final concentration in the assay). Compound/DMSO mixes were added to the cells and incubated for 4 days at 37° C. After 4 days, cells were first assessed for cytotoxicity using alamar Blue (Trek Diagnotstic Systems) for a CC50 reading. The toxicity of compound (CC50) was determined by adding 1/10th volume of alamar Blue to the media incubating the cells. After 4 h, the fluorescence signal from each well was read, with an excitation wavelength at 530 nm and an emission wavelength of 580 nm, using the Cytofluor Series 4000 (Perspective Biosystems). Plates were then rinsed thoroughly with Phosphate-Buffered Saline (PBS) (3 times 150 μl).
For orientation: A replicon is a self-replicating genome or part of one, used to study replication in cells.

What is called IC50 is the concentration that gives 50% inhibition. By EC50 is commonly meant the concentration giving half of the maximal effect.

Like-named read-outs stand apart in the source and are kept apart here.

In the case of `C=C[C@@H]1C[C@]1(NC(=O)[C@@H]1C[C@@H](Oc2ncc(OC)c3ccc(Cl)cc23)CN1C(=O)[C@@H](Nc1nc(-c2ccc(Cl)c(C)c2)cs1)C(C)(C)C)C(=O)NS(=O)(=O)C1CC1` [Example 27], in assay [1] (numeric values), the IC50 stood at 2 nM. The EC50 in assay [2] (Huh-7, HCV replicon cell assay, numeric values, read-out: EC50 Range) amounted to 5.26 nM.

For `C=C[C@@H]1C[C@]1(NC(=O)[C@@H]1C[C@@H](Oc2ncc(OC)c3ccc(Cl)cc23)CN1C(=O)[C@@H](Nc1nc(-c2cccc(C#N)c2)cs1)C(C)(C)C)C(=O)NS(=O)(=O)C1CC1` [Example 25], the IC50 in assay [1] (class symbols) was 1 to 20 nM. In addition, in assay [2] (Huh-7, read-out: EC50 Range), the EC50 was 1 to 50 nM.

As to `C=C[C@@H]1C[C@]1(NC(=O)[C@@H]1C[C@@H](Oc2ncc(OC)c3ccc(Cl)cc23)CN1C(=O)[C@@H](Nc1nc(-c2ccccc2)c(C)s1)C(C)(C)C)C(=O)NS(=O)(=O)C1CC1` [Example 9, (2S,4R)-4-(7-chloro-4-methoxyisoquinolin-1-yloxy)-N-((1R,2S)-1-(cyclopropylsulfonylcarbamoyl)-2-vinylcyclopropyl)-1-((S)-3,3-dimethyl-2-(5-methyl-4-phenylthiazol-2-ylamino)butanoyl)pyrrolidine-2-carboxamide], in assay [1] (class symbols), the IC50 is 1 to 20 nM. In assay [2] (Huh-7, read-out: EC50 Range), the EC50 was 1 to 50 nM.

Turning to `C=C[C@@H]1C[C@]1(NC(=O)[C@@H]1C[C@@H](Oc2ncc(OC)c3ccc(Cl)cc23)CN1C(=O)[C@@H](Nc1nc(-c2ccccn2)cs1)C(C)(C)C)C(=O)NS(=O)(=O)C1CC1` [Example 14], the IC50 in assay [1] (class symbols) is 1 to 20 nM. In addition, the EC50 in assay [2] (Huh-7, read-out: EC50 Range) lay in the range of 1 to 50 nM.

`C=C[C@@H]1C[C@]1(NC(=O)[C@@H]1C[C@@H](Oc2ncc(OC)c3ccc(Cl)cc23)CN1C(=O)[C@@H](Nc1nc(-c2cc(C)ccc2OC)cs1)C(C)(C)C)C(=O)NS(=O)(=O)C1CC1` [Example 54]: the IC50 in assay [1] (class symbols) was in the range of 1 to 20 nM. Also, the concentration for a half-maximal effect (EC50) in assay [2] (Huh-7, read-out: EC50 Range) fell in the range of 1 to 50 nM.

Regarding `C=C[C@@H]1C[C@]1(NC(=O)[C@@H]1C[C@@H](Oc2ncc(OC)c3ccc(Cl)cc23)CN1C(=O)[C@@H](Nc1nc(-c2ccc(F)cc2F)cs1)C(C)(C)C)C(=O)NS(=O)(=O)C1CC1` [Example 13], in assay [1] (class symbols), the IC50 fell in the range of 1 to 20 nM. Moreover, the EC50 in assay [2] (Huh-7, read-out: EC50 Range) is 1 to 50 nM.

As to `COc1cnc(O[C@@H]2C[C@@H](C(=O)N[C@]3(C(=O)NS(=O)(=O)C4CC4)C[C@H]3CC(F)F)N(C(=O)[C@@H](Nc3nc(-c4ccc(F)c(C(F)(F)F)c4)cs3)C(C)(C)C)C2)c2cc(Cl)ccc12` [Example 97, (2S,4R)-4-(7-chloro-4-methoxyisoquinolin-1-yloxy)-N-((1R,2S)-1-(cyclopropylsulfonylcarbamoyl)-2-(2,2-difluoroethyl)cyclopropyl)-1-((S)-2-(4-(4-fluoro-3-(trifluoromethyl)phenyl)thiazol-2-ylamino)-3,3-dimethylbutanoyl)pyrrolidine-2-carboxamide], in assay [1] (class symbols), the IC50 fell in the range of 1 to 20 nM. Also, the EC50 in assay [2] (Huh-7, read-out: EC50 Range) fell in the range of 1 to 50 nM.

Take `C=C[C@@H]1C[C@]1(NC(=O)[C@@H]1C[C@@H](Oc2ncc(OC)c3ccc(Cl)cc23)CN1C(=O)[C@@H](Nc1nc(-c2cccnc2)cs1)C(C)(C)C)C(=O)NS(=O)(=O)C1CC1` [Example 15]: the IC50 in assay [1] (class symbols) lay in the range of 1 to 20 nM. Also, the EC50 in assay [2] (Huh-7, read-out: EC50 Range) was in the range of 1 to 50 nM.

Consider `C=C[C@@H]1C[C@]1(NC(=O)[C@@H]1C[C@@H](Oc2cc(-c3ccccc3)nc3cc(OC)ccc23)CN1C(=O)[C@@H](Nc1nc(-c2ccccc2)cs1)C(C)(C)C)C(=O)NS(=O)(=O)C1CC1` [Example 1], for which the half-maximal inhibitory concentration (IC50) in assay [1] (class symbols) is 1 to 20 nM. For the same molecule, the concentration giving a half-maximal response (EC50) in assay [2] (Huh-7, read-out: EC50 Range) lay in the range of 1 to 50 nM.

Take `C=C[C@@H]1C[C@]1(NC(=O)[C@@H]1C[C@@H](Oc2ncc(OC)c3ccc(Cl)cc23)CN1C(=O)[C@@H](Nc1nc(-c2ccc(OC)c(F)c2)cs1)C(C)(C)C)C(=O)NS(=O)(=O)C1CC1` [Example 64]: the IC50 in assay [1] (class symbols) is 1 to 20 nM.

`C=C[C@@H]1C[C@]1(NC(=O)[C@@H]1C[C@@H](Oc2ncc(OC)c3ccc(Cl)cc23)CN1C(=O)[C@@H](Nc1nc(-c2ccc(OC)c(OC)c2)cs1)C(C)(C)C)C(=O)NS(=O)(=O)C1CC1` [Example 77]: the IC50 in assay [1] (class symbols) was 1 to 20 nM.

Turning to `C=C[C@@H]1C[C@]1(NC(=O)[C@@H]1C[C@@H](Oc2ncc(OC)c3ccc(Cl)cc23)CN1C(=O)[C@@H](Nc1nc(-c2nc3ccccc3s2)cs1)C(C)(C)C)C(=O)NS(=O)(=O)C1CC1` [Example 96], the IC50 in assay [1] (class symbols) was 1 to 20 nM.

Turning to `C=C[C@@H]1C[C@]1(NC(=O)[C@@H]1C[C@@H](Oc2ncc(OC)c3ccc(Cl)cc23)CN1C(=O)[C@@H](Nc1nc(-c2cc(F)ccc2F)cs1)C(C)(C)C)C(=O)NS(=O)(=O)C1CC1` [Example 61], in assay [1] (class symbols), the IC50 is 1 to 20 nM.

Turning to `C=C[C@@H]1C[C@]1(NC(=O)[C@@H]1C[C@@H](Oc2ncc(OC)c3ccc(Cl)cc23)CN1C(=O)[C@@H](Nc1nc(-c2cc3cc(Cl)ccc3o2)cs1)C(C)(C)C)C(=O)NS(=O)(=O)C1CC1` [Example 62], the IC50 in assay [1] (class symbols) is 1 to 20 nM.

With `C=C[C@@H]1C[C@]1(NC(=O)[C@@H]1C[C@@H](Oc2ncc(OC)c3ccc(Cl)cc23)CN1C(=O)[C@@H](Nc1nc(-c2sccc2Cl)cs1)C(C)(C)C)C(=O)NS(=O)(=O)C1CC1` [Example 90], in assay [1] (class symbols), the IC50 lay within 1 to 20 nM.

Take `C=C[C@@H]1C[C@]1(NC(=O)[C@@H]1C[C@@H](Oc2ncc(OC)c3ccc(Cl)cc23)CN1C(=O)[C@@H](Nc1nc(-c2cc(F)c(F)c(F)c2)cs1)C(C)(C)C)C(=O)NS(=O)(=O)C1CC1` [Example 79]: in assay [1] (class symbols), the IC50 fell in the range of 1 to 20 nM.
